The results in this text go back to US20210246164A1, “PEPTIDIC PROTEIN KINASE C INHIBITORS AND USES THEREOF” (UNIVERSITE DE GENEVE, priority 2016, published 2021).

Where a SMILES comes first, the peptide text is derived from it. The star is where a group is joined. Myristoyl = CCCCCCCCCCCCCC(=O)*

Data set [1] concerns Caco-2 cells. The data set can be described thus: Cell viability, WST-1 based colorimetric assay. Conditions: 24 hours. For orientation: Formazan colour is commonly taken as a measure of viable cells.
Description: (§2) Viability of Caco-2 cells (human intestinal epithelial cell line) was determined by a cell proliferation assay using WST-1 based colorimetric assay. […] WST-1 reagent (diluted 1:10 in cell culture medium) was added as described in the instruction manual (Roche Diagnostics GMBH, Mannheim, Germany). Following 1-3 h incubation at 37° C. with the peptides or controls, absorbance at 450 nm (reference at 690 nm) was measured by a BioTek Synergy Mx plate reader. Percentage of cell viability was calculated based on the absorbance measured relative to that of cells exposed to only culture medium (control group). Sodium dodecyl sulfate (SDS) at 2% was used as a positive control for cell toxicity.
In data set [2] the test system is OCA_EGFR19del cultures (HCC827 cells). The data set can be described thus: Tumor size in OncoCilAir non-small cell lung cancer model. The format is cell-based. The source says:
HCC827 cells (lung adenocarcinoma) mutated in the tyrosine kinase domain of the EGFR (epidermal growth factor receptor) were used (model OncoCilAir™, wherein Non-Small Cell Lung Cancer (NSCLC) cells were tagged with green fluorescent protein (GFP)).
Tumour morphometry was resolved by fluorescence microscopy using a Zeiss Axiocam microscope platform. Growth curves were based on various images were acquired every 2 days and the area of the green fluorescent protein positive (GFP^+) tumour was measured using the Image-Pro Plus Software (MediaCybernetics, Rockville, Md., USA). For each time point, the ratio of the total area occupied by tumours to the size of the insert was calculated and expressed as percentage of day 0, at the start of the treatment (tumor occupancy). Identical analyses settings, i.e. fixed fluorescence intensity threshold and fixed size threshold ([…]) were applied to all processed images. Percentage of tumour growth inhibition was calculated using the formula: (1−[tumour occupancy in treatment group/tumour occupancy in control group]×100).

The subject of data set [3] is primary human nasal epithelial cell monolayers. In words: Permeabilization of fluorescein-conjugated dextran (FD) across nasal epithelial monolayers (cumulative release, Papp). It is filed as cell-based. As to the method:
To assess the potential effects of peptides of the invention on the permeabilization of therapeutic molecules, fluorescein-conjugated dextrans (FD) were used to as a model for assessing paracellular drug transport (apical to basolateral) across the epithelial monolayer.
To ensure that the integrity of the monolayer was maintained during the course of the experiment, trans-epithelial electrical resistance (TEER) was measured before and after these studies, as described below.
Mucilair™ human primary nasal and bronchial epithelial cells (Epithelix sarl, Geneva, Switzerland) were used (Huang et. al., 2013, Toxicol. in Vitro 27: 1151-1156).
Before each experiment, the culture medium was removed from each compartment and the monolayer was washed once with 200 μl of saline (0.9%) and once with warm Hanks' Balanced Salt Solution (HBSS) (37° C.). In the basolateral compartment, 600 μL of pre-warmed HBSS was placed and the cells were returned to the incubator at 37° C. for 30 minutes to equilibrate. After equilibration, the peptides of the invention were applied to the apical side of an epithelial monolayer 5 minutes prior to the addition of FD solution. Peptide 1 according to the invention (P1 of SEQ ID NO: 2) was tested in comparison with comparative peptides C1 (SEQ ID NO: 4) and C2 (SEQ ID NO: 5). FD having a molecular weight (MW) of 4 and 150 kDa were used.
All peptides were used at a final concentration of 10 μM. The vehicle was used as a control (CTRL). The FD solution was added to the apical compartment to make a final volume of 200 μl. Samples of 100 μL were taken from the basal compartment of each well every 30 minutes over a period of 150 minutes, with each volume being replaced with equal amount of fresh warm buffer to maintain sink condition. The fluorescence of FD was measured in black 96-well plates using a fluorescence plate reader (BioTek Synergy Mx plate reader, BioTek Instruments GmbH, Lucerne, Switzerland), using excitation and emission wavelengths of 485 and 520 nm, respectively. Cumulative release (ng) corresponds to the actual amount of drug released cumulatively and corresponds to the amount in the suspension medium at any time plus the amount of the drug lost during each sampling.
Trans-epithelial electrical resistance (TEER): After addition of 200 μl of culture medium to the apical compartment of the tissue cultures, resistance was measured across cultures with an EVOMX volt-ohm-meter (World Precision Instruments UK, Stevenage) in triplicate for each time point. The TEER values (Ω) were converted normalized by using the following formula: TEER (Ωcm^2)=(resistance value (Ω)−100 (Ω))×0.33 (cm^2), where 100Ω is the resistance of the membrane and 0.33 cm^2 is the total surface of the epithelium.
To assess the role of the membrane penetrating group (myristoyl) in peptides of the invention in the enhancing of the permeability of macromolecules through epithelial cell layers, the permeabilizing capacity of peptide P1 of the invention was compared to a comparative peptide C3 (SEQ ID NO: 6) corresponding to the same peptide without the myristoyl group. The permeabilizing capacity of a peptide P2 (SEQ ID NO: 3) of the invention was also assessed. Uptake experiments and TEER were conducted as described in Example 2.
To assess the duration of the permeabilization effect of the peptide of the invention, apparent permeability of peptides of various lengths was evaluated as follows. Apparent permeability refers to the amount of released FD at that time point when the sample is collected.
The tested Peptides, uptake experiments and TEER were as described in Example 2.
Apparent permeability of FD: The apparent permeability (Papp) of FD was calculated using equation 1: Papp=(dQ/dt)/A*C0 (1)

Data set [4] has as its system TJ proteins occludin and ZO-1 in primary human bronchial epithelial cell monolayers. The data set can be described thus: Immunofluorescence of TJ proteins occludin and ZO-1, bronchial cells (confocal microscopy). The format is cell-based. Conditions: 50 μM peptide, 2 hours. As to the method:
(§1) The effect of peptides of the invention on the tight junction structure of human primary nasal and bronchial epithelial cells were evaluated by confocal microscopy as follows. Mucilair™ human primary nasal and bronchial epithelial cells (Epithelix Sarl, Geneva, Switzerland) were incubated with 50 μM of peptide of the invention P1 or comparative peptides C1 and C2 for 2 hours and washed twice with phosphate buffered saline (PBS) (without Ca^2+/Mg^2+) at 37° C. Cells were fixed with methanol/acetone (50:50) for 5 minutes at […], air-dried, and washed with TBST (mixture of tris-buffered saline (TBS) and Polysorbate 20). Cell monolayers were blocked using a solution of 3% bovine serum albumin (BSA) in PBS for 60 minutes at room temperature and incubated with primary antibody against occludin (Cat: 331588, Invitrogen, Zug, Switzerland); dilution (1:200)) and ZO-1 (zonula occludens-1 protein) (Cat: 339194, Invitrogen, Zug, Switzerland); dilution (1:200)) in dilution buffer. Samples were mounted (Vectashield mounting media with DAPI (4′,6-diamidino-2-phenylindole); Vector Laboratories) and assessed within the next 24 hours by using a laser-scanning confocal microscope (CLSM; Plan-Apochromat 63/1.40 (oil) DIC objective, Zeiss Axiovert 100M-LSM 510; Carl Zeiss, Oberkochen, Germany). […]

A short description of data set [5]: in vitro. The following applies: human, Caco-2 cells.
Description: as §2
Data set [6] concerns TJ proteins occludin and ZO-1 in primary human nasal epithelial cell monolayers. In words: Immunofluorescence of TJ proteins occludin and ZO-1, nasal cells (confocal microscopy). The format is cell-based. The following applies: 50 μM peptide, 2 hours. As to the method:
as §1

Setting [7] is: P1 1 μM apical + gefitinib 1 μM apical.
Setting [8] is: peptide 10 μM apical, 150 minutes, vs control.

Take `CCCCCCCCCCCCCC(=O)N[C@@H](C)C(=O)N[C@@H](CCCNC(=N)N)C(=O)N[C@@H](CCCNC(=N)N)C(=O)N[C@@H](Cc1c[nH]c2ccccc12)C(=O)N[C@@H](CCCNC(=N)N)C(=O)O` [Peptide P1, Myr-ARRWR] (Myristoyl-ARRWR-OH): the “toxicity on Caco-2 cells” value in data set [1] (50 μM) is “did not show any toxicity”. Besides, the “concentration non-toxic to cells” value in data set [1] is reported as “at least 50 μM”. In data set [2] (setting [7]), the “effect of combination on tumour size vs gefitinib alone” value is on record as “significantly more efficacious than the gefitinib alone” and the “time at which maximal therapeutic effect was obtained” value turned out to be 3 days. For the same molecule, the “effect of combination on tumour progression vs gefitinib alone” value in data set [2] (P1 1 μM apical + gefitinib 1 μM basal) is listed as “significantly potentiated the effects of the drug on tumour progression”. For the same molecule, the “effect of combination on tumour progression vs gefitinib alone” value in data set [2] (P1 1 μM apical + gefitinib 5 μM basal) is listed as “significantly potentiated the effects of the drug on tumour progression”. In data set [2] (P1 alone 1 μM apical, 6 expositions over 14 days, vs DMSO), the “effect on tumor size” value is reported as “had no effect on tumor size”. Besides, in data set [3] (setting [8]), the “permeability of FD of 150 kDa (cumulative release)” value is “significantly increases the permeability” and the “permeability of fluorescein conjugated dextran of 4 kDa (cumulative release)” value was “increased the permeability of the fluorescein conjugated dextran of 4 kDa in a significant manner”. In addition, in data set [3] (peptide 10 μM, 150 minutes), the “Papp for FD of 150 kDa over time” value was “immediate increase in the first 30 minutes and steadily decreased therefrom”; the “reversibility of permeabilization of FD 4 kDa (decrease in Papp overtime)” value is given as “reversible”. Besides, in data set [3] (peptide 10 μM, FIG. 6), the “reversibility of the permeabilization effect, FD of 150 kDa” value is listed as “Reversibility of the permeabilization effect was also observed”. In addition, the “redistribution of occludin and ZO-1” value in data set [4] is on record as “causes desired TJ proteins redistribution”. This molecule also came in with a viability at 24 h, 100 µM in data set [5] of 76.7%. Besides, in data set [6], the “redistribution of occludin and ZO-1” value is reported as “causes desired TJ proteins redistribution”.

For orientation: viability means the share of living cells, or the viability signal relative to a control. A higher viability goes with less harm to the cells.
